≈ marks a conversion by molar mass, not a printed value.
Test: Solubility pH 7
Conditions: pH 7, aqueous buffer

Row | SMILES | solubility [µg/mL]
1 | COc1ccc(C[C@H](NC(=O)[C@H](C)NC(=O)CN2CCOCC2)C(=O)N[C@@H](C[C@H]2CCN(C)C2=O)C(=O)[C@@]2(C)CO2)cc1 [Compound C-1040, (2S)-3-(4-methoxyphenyl)-N-((2S)-3-(1-methyl-2-oxopyrrolidin-3-yl)-1-((R)-2-methyloxiran-2-yl)-1-oxopropan-2-yl)-2-((S)-2-(2-morpholinoacetamido)propanamido) propanamide] | 12300 (≈ 20.5 mM)
2 | COc1ccc(C[C@H](NC(=O)[C@@H](NC(=O)CN2CCOCC2)C2CC2)C(=O)N[C@@H](CC2CCCC2)C(=O)[C@@]2(C)CO2)cc1 [Compound C-1107, (S)-N-((S)-3-cyclopentyl-1-((R)-2-methyloxiran-2-yl)-1-oxopropan-2-yl)-2-((S)-2-cyclopropyl-2-(2-morpholinoacetamido)acetamido)-3-(4-methoxyphenyl)propanamide] | 200 (≈ 0.334 mM)
3 | C[C@H](NC(=O)CN1CCOCC1)C(=O)N[C@@H](CC1CC1)C(=O)N[C@@H](Cc1ccccc1)C(=O)[C@@]1(C)CO1 [Compound C-1224, (S)-3-cyclopropyl-N-((S)-1-((R)-2-methyloxiran-2-yl)-1-oxo-3-phenylpropan-2-yl)-2-((S)-2-(2-morpholinoacetamido)propanamido)propanamide] | 257 (≈ 0.5 mM)
4 | C[C@H](NC(=O)CN1CCOCC1)C(=O)N[C@@H](Cc1ccc2c(c1)CNC(=O)O2)C(=O)N[C@@H](CC1CCCC1)C(=O)[C@@]1(C)CO1 [Compound C-1108, (S)-N-((S)-3-cyclopentyl-1-((R)-2-methyloxiran-2-yl)-1-oxopropan-2-yl)-2-((S)-2-(2-morpholinoacetamido)propanamido)-3-(2-oxo-3,4-dihydro-2H-benzo[e][1,3]oxazin-6-yl)propanamide] | 4730 (≈ 7.71 mM)
5 | COc1ccc(C[C@H](NC(=O)[C@H](C)NC(=O)CN2CCOCC2)C(=O)N[C@@H](C[C@@H]2CCCO2)C(=O)[C@@]2(C)CO2)cc1 [Compound C-1016, (S)-3-(4-methoxyphenyl)-N-((S)-1-((R)-2-methyloxhan-2-yl)-1-oxo-3-((S)-tetrahydrofuran-2-yl)propan-2-yl)-2-((S)-2-(2-morpholinoacetamido)propanamido)propanamide] | 6890 (≈ 12 mM)
6 | C[C@H](NC(=O)CN1CCOCC1)C(=O)N[C@@H](Cc1ccc2c(c1)CCNS2(=O)=O)C(=O)N[C@@H](CC1CCCC1)C(=O)[C@@]1(C)CO1 [Compound C-1091, (S)-N-((S)-3-cyclopentyl-1-((R)-2-methyloxiran-2-yl)-1-oxopropan-2-yl)-3-(1,1-dioxido-3,4-dihydro-2H-benzo[e][1,2]thiazin-6-yl)-2-((S)-2-(2-morpholinoacetamido)propanamido)propanamide] | 230 (≈ 0.356 mM)
7 | C[C@H](NC(=O)CN1CCOCC1)C(=O)N[C@@H](Cc1ccc2c(c1)CC(=O)N2)C(=O)N[C@@H](CC1CCCC1)C(=O)[C@@]1(C)CO1 [Compound C-1081, (S)-N-((S)-3-cyclopentyl-1-((R)-2-methyloxiran-2-yl)-1-oxopropan-2-yl)-2-((S)-2-(2-morpholinoacetamido)propanamido)-3-(2-oxoindolin-5-yl)propanamide] | 2760 (≈ 4.62 mM)
8 | C[C@H](NC(=O)CN1CCOCC1)C(=O)N[C@@H](Cc1ccc(OC(F)(F)F)cc1)C(=O)N[C@@H](CC1CCCC1)C(=O)[C@@]1(C)CO1 [Compound C-1084, (S)-N-((S)-3-cyclopentyl-1-((R)-2-methyloxiran-2-yl)-1-oxopropan-2-yl)-2-((S)-2-(2-morpholinoacetamido)propanamido)-3-(4-(trifluoromethoxy)phenyl)propanamide] | 125 (≈ 0.2 mM)
9 | C[C@H](NC(=O)CN1CCOCC1)C(=O)N[C@@H](Cc1ccc2c(c1)CCS(=O)(=O)N2)C(=O)N[C@@H](CC1CCCC1)C(=O)[C@@]1(C)CO1 [Compound C-1102, (S)-N-((S)-3-cyclopentyl-1-((R)-2-methyloxiran-2-yl)-1-oxopropan-2-yl)-3-(2,2-dioxido-3,4-dihydro-1H-benzo[c][1,2]thiazin-6-yl)-2-((S)-2-(2-morpholinoacetamido)propanamido)propanamide] | 3410 (≈ 5.26 mM)
10 | COc1ccc(C[C@H](NC(=O)[C@H](C)NC(=O)CN2CCOCC2)C(=O)N[C@@H](Cc2ccc(C#N)cc2)C(=O)[C@@]2(C)CO2)cc1 [Compound C-1163] | 2460 (≈ 4.06 mM)
11 | COc1cc(C[C@H](NC(=O)[C@H](C)NC(=O)CN2CCOCC2)C(=O)N[C@@H](CC2=CCCC2)C(=O)[C@@]2(C)CO2)ccn1 [Compound C-1141, (S)-N-((S)-3-(Cyclopent-1-en-1-yl)-1-((R)-2-methyloxiran-2-yl)-1-oxopropan-2-yl)-3-(2-methoxypyridin-4-yl)-2-((S)-2-(2-morpholinoacetamido)propanamido)propanamide] | 9010 (≈ 15.8 mM)
12 | COc1ccc(C[C@H](NC(=O)[C@H](C)NC(=O)CN2CCOCC2)C(=O)N[C@@H](CN2CCCC2=O)C(=O)[C@@]2(C)CO2)cc1 [Compound C-1042, (S)-3-(4-methoxyphenyl)-N-((S)-1-((R)-2-methyloxiran-2-yl)-1-oxo-3-(2-oxopyrrolidin-1-yl)propan-2-yl)-2-((S)-2-(2-morpholinoacetamido)propanamido)propanamide] | 8780 (≈ 14.9 mM)

More lines, now with the values ahead:

Row | solubility [µg/mL] | SMILES
13 | > 10000 | COc1ccc(C[C@H](NC(=O)[C@H](C)NC(=O)CN2CCOCC2)C(=O)N[C@@H](CC2=CCCC2)C(=O)[C@@]2(C)CO2)cn1 [Compound C-1140, (S)-N-((S)-3-(cyclopent-1-en-1-yl)-1-((R)-2-methyloxiran-2-yl)-1-oxopropan-2-yl)-3-(6-methoxypyridin-3-yl)-2-((S)-2-(2-morpholinoacetamido)propanamido)propanamide]
14 | 4570 (≈ 7.61 mM) | COc1ccc(C[C@H](NC(=O)[C@H](C)NC(=O)CN2CCOCC2)C(=O)N[C@@H](CC2=CCCCC2)C(=O)[C@@]2(C)CO2)cc1O [Compound C-1100]
15 | 8000 (≈ 13.7 mM) | COc1ccc(C[C@H](NC(=O)[C@H](C)NC(=O)CN2CCNC(=O)C2)C(=O)N[C@@H](CC2=CCCC2)C(=O)[C@@]2(C)CO2)cc1 [Compound C-1120, (S)-N-((S)-3-(cyclopent-1-en-1-yl)-1-((R)-2-methyloxiran-2-yl)-1-oxopropan-2-yl)-3-(4-methoxyphenyl)-2-((S)-2-(2-(3-oxopiperazin-1-yl)acetamido)propanamido)propanamide]
16 | 1900 (≈ 3.46 mM) | COc1ccc(C[C@H](NC(=O)[C@H](C)NC(=O)C2CN(C)C2)C(=O)N[C@@H](Cc2ccccc2)C(=O)[C@@]2(C)CO2)cc1 [Compound C-1172, N-((S)-1-(((S)-3-(4-methoxyphenyl)-1-(((S)-1-((R)-2-methyloxiran-2-yl)-1-oxo-3-phenylpropan-2-yl)amino)-1-oxopropan-2-yl)amino)-1-oxopropan-2-yl)-1-methylazetidine-3-carboxamide]
17 | 7310 (≈ 12.9 mM) | COc1ccc(C[C@H](NC(=O)[C@@H](C)NC(=O)[C@@H]2CCCN(C)C2)C(=O)N[C@@H](CC2=CCCC2)C(=O)[C@@]2(C)CO2)cc1 [Compound C-1099, (R)-N-((R)-1-(((S)-1-(((S)-3-(cyclopent-1-en-1-yl)-1-((R)-2-methyloxiran-2-yl)-1-oxopropan-2-yl)amino)-3-(4-methoxyphenyl)-1-oxopropan-2-yl)amino)-1-oxopropan-2-yl)-1-methylpiperidine-3-carboxamide]
18 | 287 (≈ 0.479 mM) | COc1ccc(C[C@H](NC(=O)[C@H](C)NC(=O)CN2CCC(C)(O)CC2)C(=O)N[C@@H](CC2=CCCC2)C(=O)[C@@]2(C)CO2)cc1 [Compound C-1121, (S)-N-((S)-3-(cyclopent-1-en-1-yl)-1-((R)-2-methyloxiran-2-yl)-1-oxopropan-2-yl)-2-((S)-2-(2-(4-hydroxy-4-methylpiperidin-1-yl)acetamido)propanamido)-3-(4-methoxyphenyl)propanamide]
19 | 2180 (≈ 3.67 mM) | COc1ccc(C[C@H](NC(=O)[C@@H](C)NC(=O)[C@H]2CC[C@H](O)CC2)C(=O)N[C@@H](CC2CC(F)(F)C2)C(=O)[C@@]2(C)CO2)cc1 [Compound C-1073, (1r,4R)-N-((R)-1-(((S)-1-(((S)-3-(3,3-difluorocyclobutyl)-1-((R)-2-methyloxiran-2-yl)-1-oxopropan-2-yl)amino)-3-(4-methoxyphenyl)-1-oxopropan-2-yl)amino)-1-oxopropan-2-yl)-4-hydroxycyclohexanecarboxamide]
20 | 7280 (≈ 11.5 mM) | C[C@H](NC(=O)CN1CCOCC1)C(=O)N[C@@H](Cc1ccc(S(C)(=O)=O)cc1)C(=O)N[C@@H](CC1=CCCCC1)C(=O)[C@@]1(C)CO1 [Compound C-1126, (S)-N-((S)-3-(cyclohex-1-en-1-yl)-1-((R)-2-methyloxiran-2-yl)-1-oxopropan-2-yl)-3-(4-(methylsulfonyl)phenyl)-2-((S)-2-(2-morpholinoacetamido)propanamido)propanamide]
21 | 1070 (≈ 1.84 mM) | COc1ccc(C[C@H](NC(=O)[C@@H](C)NC(=O)[C@]2(C)CC[C@@H](O)CC2)C(=O)N[C@@H](CC2=CCCC2)C(=O)[C@@]2(C)CO2)cc1 [Compound C-1111, (1r,4R)-N-((R)-1-(((S)-1-(((S)-3-(Cyclopent-1-en-1-yl)-1-((R)-2-methyloxiran-2-yl)-1-oxopropan-2-yl)amino)-3-(4-methoxyphenyl)-1-oxopropan-2-yl)amino)-1-oxopropan-2-yl)-4-hydroxy-1-methylcyclohexanecarboxamide]
22 | 4410 (≈ 7.92 mM) | COc1ccc(C[C@H](NC(=O)[C@@H](C)NC(=O)[C@@H]2CNC(=O)C2)C(=O)N[C@@H](CC2CCCC2)C(=O)[C@@]2(C)CO2)cc1 [Compound C-1068, (S)-N-((R)-1-(((S)-1-(((S)-3-cyclopentyl-1-((R)-2-methyloxiran-2-yl)-1-oxopropan-2-yl)amino)-3-(4-methoxyphenyl)-1-oxopropan-2-yl)amino)-1-oxopropan-2-yl)-5-oxopyrrolidine-3-carboxamide]
23 | 7830 (≈ 13.8 mM) | COc1ccc(C[C@H](NC(=O)[C@@H](C)NC(=O)C2CCN(C)CC2)C(=O)N[C@@H](CC2=CCCC2)C(=O)[C@@]2(C)CO2)cc1 [Compound C-1098, N-((R)-1-(((S)-1-(((S)-3-(cyclopent-1-en-1-yl)-1-((R)-2-methyloxiran-2-yl)-1-oxopropan-2-yl)amino)-3-(4-methoxyphenyl)-1-oxopropan-2-yl)amino)-1-oxopropan-2-yl)-1-methylpiperidine-4-carboxamide]

— patent USRE47302E1 (ONYX THERAPEUTICS INC., priority 2013, dated 2019)
